Measured values reported in US10441562B2, “Aromatic farnesyl compound and application thereof” (INSTITUTE OF MICROBIOLOGY, CHINESE ACADEMY OF SCIENCES, priority 2015, dated 2019).

Tests used:
Type in all cases: in vivo
[1] = tested on: hyperglycemia KK-A^y mice; assay: blood sugar of hyperglycemia KK-A^y mice; parameters: blood sugar: unit not given here; settings: for blood sugar at the 1st day, 0: 1st day 0 h; for blood sugar at the 1st day, 30 min: 1st day 30 min after intragastric administration
Procedure: (§1) Materials: accurately weigh the 2 compounds S13 and S28 discussed in example 2, and then add 0.5% CMC-Na to make the solution of 5 mg/ml used for activity test. KK-A^y mice are purchased from Chinese Academy of Medical Sciences & Peking Union Medical College Institute of Animal Studies. Experiments are carried out after adapting to the environment (T=20-24° C., constant humidity: 50-60%, 12 hours light exposure (8:00-20:00), soundproof, free feeding and drinking) for 1 week. Glucometer is purchased from Roche.
(§2) Methods: 10 male C57 mice of 6-8 weeks of 20-22 g are used as normal control group (1). Detect the fasting glucose of male KK-A^y mice, which are 6-8 weeks with the weight of 28-32 g, and divide them into different groups according to the blood sugar level and body weight: (2) model control group, (3) which is administered by compound S13 with the dose of 1 mg/kg, (4) which is administered by compound S13 with the dose of 5 mg/kg, (5) which is administered by compound S13 with the dose of 10 mg/kg, (6) which is administered by compound S13 with the dose of 20 mg/kg, (7) which is administered by compound S28 with the dose of 1 mg/kg, (8) which is administered by compound S28 with the dose of 5 mg/kg, (9) which is administered by compound S28 with the dose of 10 mg/kg, (10) which is administered by compound S28 with the dose of 20 mg/kg, (11) which is administered by metformin with the dose of 8 g/kg, (12) which is administered by compound S13 with the dose of 2.5 mg/kg and metformin with the dose of 4 g/kg, (13) which is administered by compound S13 with the dose of 5 mg/kg and metformin with the dose of 4 g/kg, (14) which is administered by compound S28 with the dose of 2.5 mg/kg and metformin with the dose of […], (15) which is administered by compound S28 with the dose of 5 mg/kg and metformin with the dose of […]. Each group has 8 mice, and is administrated successively for 3 weeks. Model control group is given with equal amounts of 0.5% CMC-Na.
1) Effects of drugs on blood sugar: at the first day after administration, the mice are fasted for 2 hours and blood is collected (0 h) to detect the fasting blood sugar. After the compound is given to the mice by intragastric administration for 30 min, blood is collected from tip of tail to detect the blood sugar level.
(§3) 2) Effects on body weight and blood sugar: the body weight of mice are recorded at the 2th, 5th, 8th, 11th, 14th, 17th, 20th day after administration, and blood is collected from tip of tail to detect the blood sugar level (see table 10).

[2] = body weight of hyperglycemia KK-A^y mice
Procedure: as §1, §2, §3

[3] = tested on: Wister rats fed with choline deficient diet; assay: hepatic tissue section of non-alcohol fatty liver rats (HE); settings: FIG. 2, 10 and 20 mg/kg
Procedure: Methods: male SPF level Wister rats are randomly divided into groups: (1) normal group (2) model control group (3) which is administered by compound S13 with the dose of 10 mg/kg (4) which is administered by compound S13 with the dose of 20 mg/kg (5) which is administered by compound S28 with the dose of 10 mg/kg […] which is administered by compound S28 with the dose of 20 mg/kg. Each group has 10 mice. The mice of normal group are fed with standard diet, the mice of other groups are fed with choline deficient diet (high-fat diet). Food intake and body weight are detected. Feeding with choline deficient diet are considered as a frequently-used hepatic adipose infiltration modeling method of rodent, which can induce the denaturation of hepatocyte, hepatitis and liver injury, at the same time the increase of blood lipid level can induce the insulin resistance.
After being fed with high-fat diet for 8 weeks, the mice of treated group are given drugs for 4 weeks successively. Model group and normal group are given with equal amounts of 0.5% CMC-Na. After administration of medicine for 4 weeks, the rats are executed under anesthesia, and then hepatic tissue and blood are collected.
4) Hepatic tissue section: after the last administration, the rats are executed under anesthesia. Collect the liver on the ice, then quickly fix the liver into formalin and prepare the tissue sections.

[4] = 2st day, 20 mg/kg, groups 6, 10
[5] = 5st day, 20 mg/kg, groups 6, 10
[6] = 8st day, 20 mg/kg, groups 6, 10
[7] = 11st day, 10 mg/kg, groups 5, 9
[8] = 11st day, 20 mg/kg, groups 6, 10
[9] = 14st day, 10 mg/kg, groups 5, 9
[10] = 14st day, 20 mg/kg, groups 6, 10
[11] = 17st day, 10 mg/kg, groups 5, 9
[12] = 17st day, 20 mg/kg, groups 6, 10
[13] = 20st day, 10 mg/kg, groups 5, 9
[14] = 20st day, 20 mg/kg, groups 6, 10

CC(C)=CCC/C(C)=C/CCC1=C[C@H](c2cc(O)ccc2O)OC1=O [S13, (R,E)-5-(2,5-dihydroxyphenyl)-3-(4,8-dimethylnona-3,7-dien-1-yl)furan-2(5H)-one]
effect on blood sugar of hyperglycemia mice (in words) [1]: significant effects on blood sugar of hyperglycemia mice
blood sugar at the 1st day, 0 ([1]; 1 mg/kg, groups 3, 7): 14.7
blood sugar at the 1st day, 0 ([1]; 5 mg/kg, groups 4, 8): 14.8
blood sugar at the 1st day, 0 ([1]; 10 mg/kg, groups 5, 9): 14.9
blood sugar at the 1st day, 0 ([1]; 20 mg/kg, groups 6, 10): 14.7
blood sugar at the 1st day, 30 min ([1]; 1 mg/kg, groups 3, 7): 11.1
blood sugar at the 1st day, 30 min ([1]; 5 mg/kg, groups 4, 8): 9.2
blood sugar at the 1st day, 30 min ([1]; 10 mg/kg, groups 5, 9): 9.21
blood sugar at the 1st day, 30 min ([1]; 20 mg/kg, groups 6, 10): 6.24
blood sugar ([1]; 2st day, 1 mg/kg, groups 3, 7): 17.3
blood sugar ([1]; 2st day, 5 mg/kg, groups 4, 8): 10.1
blood sugar ([1]; 2st day, 10 mg/kg, groups 5, 9): 13.98
blood sugar [1, 4]: 13.2
blood sugar ([1]; 5st day, 1 mg/kg, groups 3, 7): 14.1
blood sugar ([1]; 5st day, 5 mg/kg, groups 4, 8): 10.8
blood sugar ([1]; 5st day, 10 mg/kg, groups 5, 9): 13.5
blood sugar [1, 5]: 12.9
blood sugar ([1]; 8st day, 1 mg/kg, groups 3, 7): 13.8
blood sugar ([1]; 8st day, 5 mg/kg, groups 4, 8): 7.1
blood sugar ([1]; 8st day, 10 mg/kg, groups 5, 9): 14.1
blood sugar [1, 6]: 12.8
blood sugar ([1]; 11st day, 1 mg/kg, groups 3, 7): 15.1
blood sugar ([1]; 11st day, 5 mg/kg, groups 4, 8): 8.2
blood sugar [1, 7]: 14.2
blood sugar [1, 8]: 12.8
blood sugar ([1]; 14st day, 1 mg/kg, groups 3, 7): 12.3
blood sugar ([1]; 14st day, 5 mg/kg, groups 4, 8): 8.2
blood sugar [1, 9]: 13.9
blood sugar [1, 10]: 12.5
blood sugar ([1]; 17st day, 1 mg/kg, groups 3, 7): 13.1
blood sugar ([1]; 17st day, 5 mg/kg, groups 4, 8): 8.2
blood sugar [1, 11]: 14.5
blood sugar [1, 12]: 12.3
blood sugar ([1]; 20st day, 1 mg/kg, groups 3, 7): 12.8
blood sugar ([1]; 20st day, 5 mg/kg, groups 4, 8): 10.1
blood sugar [1, 13]: 14.59
blood sugar [1, 14]: 12.5
effect on body weight (in words) [2]: litter effect on body weight
Body weight ([2]; 2st day, 1 mg/kg, groups 3, 7): 30.6 g
Body weight ([2]; 2st day, 5 mg/kg, groups 4, 8): 30.7 g
Body weight ([2]; 2st day, 10 mg/kg, groups 5, 9): 30.3 g
Body weight [2, 4]: 30.5 g
Body weight ([2]; 5st day, 1 mg/kg, groups 3, 7): 30.8 g
Body weight ([2]; 5st day, 5 mg/kg, groups 4, 8): 30.8 g
Body weight ([2]; 5st day, 10 mg/kg, groups 5, 9): 30.2 g
Body weight [2, 5]: 30.3 g
Body weight ([2]; 8st day, 1 mg/kg, groups 3, 7): 30.5 g
Body weight ([2]; 8st day, 5 mg/kg, groups 4, 8): 30.9 g
Body weight ([2]; 8st day, 10 mg/kg, groups 5, 9): 30.3 g
Body weight [2, 6]: 30.2 g
Body weight ([2]; 11st day, 1 mg/kg, groups 3, 7): 30.5 g
Body weight ([2]; 11st day, 5 mg/kg, groups 4, 8): 31.2 g
Body weight [2, 7]: 31.5 g
Body weight [2, 8]: 30.1 g
Body weight ([2]; 14st day, 1 mg/kg, groups 3, 7): 31.2 g
Body weight ([2]; 14st day, 5 mg/kg, groups 4, 8): 31.5 g
Body weight [2, 9]: 32.5 g
Body weight [2, 10]: 30.4 g
Body weight ([2]; 17st day, 1 mg/kg, groups 3, 7): 31.8 g
Body weight ([2]; 17st day, 5 mg/kg, groups 4, 8): 31.5 g
Body weight [2, 11]: 32.1 g
Body weight [2, 12]: 30 g
Body weight ([2]; 20st day, 1 mg/kg, groups 3, 7): 32.1 g
Body weight ([2]; 20st day, 5 mg/kg, groups 4, 8): 31.6 g
Body weight [2, 13]: 32.5 g
Body weight [2, 14]: 30.1 g
fat vacuole in hepatocyte (liver tissue section, HE) [3]: almost disappear
